# Measurements: ChEMBL document CHEMBL1649287, “Postantibiotic effect of ceftaroline against gram-positive organisms” (2009)
# How the values were obtained:
# Assay type in all cases: functional
# Streptococcus pneumoniae [1] = experiment: Antimicrobial activity against Penicillin-susceptible Streptococcus pneumoniae s502 assessed as time required to induce sub-MIC effect at 0.2 times MIC after 1 hr by plate counting method
# Enterococcus faecalis [2] = experiment: Antimicrobial activity against vancomycin-resistant Enterococcus faecalis 609 assessed as time required to induce sub-MIC effect at 0.4 times MIC after 1 hr by plate counting method; conditions: Enterococcus faecalis, 609, 1 h
# Streptococcus pneumoniae [3] = experiment: Antimicrobial activity against Penicillin-susceptible Streptococcus pneumoniae ATCC 49617 assessed as post antibiotic effect at 10 times MIC after 1 hr by plate counting method; conditions: ATCC 49617, 1 h
# Streptococcus pneumoniae [4] = experiment: Antimicrobial activity against Penicillin-susceptible Streptococcus pneumoniae ATCC 49617 assessed as time required to induce sub-MIC effect at 0.2 times MIC after 1 hr by plate counting method; conditions: ATCC 49617, 1 h
# Enterococcus faecalis [5] = experiment: Antimicrobial activity against vancomycin-sensitive Enterococcus faecalis 10 assessed as time required to induce sub-MIC effect at 0.3 times MIC after 1 hr by plate counting method; conditions: Enterococcus faecalis, 10, 1 h
# Streptococcus pneumoniae [6] = experiment: Antimicrobial activity against Penicillin-susceptible Streptococcus pneumoniae ATCC 49617 by microdilution method
# Staphylococcus aureus [7] = experiment: Antimicrobial activity against methicillin-susceptible, vancomycin-susceptible Staphylococcus aureus ATCC 29213 assessed as time required to induce sub-MIC effect at 0.3 times MIC after 1 hr by plate counting method; conditions: ATCC 29213, 1 h
# Staphylococcus aureus [8] = experiment: Antimicrobial activity against methicillin-resistant, vancomycin-hetroresistant Staphylococcus aureus 618 assessed as time required to induce post antibiotic sub-MIC effect at 0.4 times MIC after 1 hr by plate counting method; conditions: Staphylococcus aureus, 618, 1 h
# Staphylococcus aureus [9] = experiment: Antimicrobial activity against methicillin-resistant, vancomycin-susceptible Staphylococcus aureus vs1 assessed as time required to induce post antibiotic sub-MIC effect at 0.3 times MIC after 1 hr by plate counting method; conditions: vs1, 1 h
# Enterococcus faecalis [10] = experiment: Antimicrobial activity against vancomycin-sensitive Enterococcus faecalis 20 assessed as post antibiotic effect at 10 times MIC after 1 hr by plate counting method; conditions: Enterococcus faecalis, 20, 1 h
# Staphylococcus aureus [11] = experiment: Antimicrobial activity against methicillin-resistant, vancomycin-intermediate Staphylococcus aureus 510 assessed as time required to induce sub-MIC effect at 0.4 times MIC after 1 hr by plate counting method; conditions: Staphylococcus aureus, 510, 1 h
# Enterococcus faecalis [12] = experiment: Antimicrobial activity against vancomycin-sensitive Enterococcus faecalis 10 assessed as post antibiotic effect at 10 times MIC after 1 hr by plate counting method; conditions: Enterococcus faecalis, 10, 1 h
# Staphylococcus aureus [13] = experiment: Antimicrobial activity against methicillin-resistant, vancomycin-hetroresistant Staphylococcus aureus 618 by microdilution method
# Enterococcus faecalis [14] = experiment: Antimicrobial activity against vancomycin-sensitive Enterococcus faecalis 10 assessed as time required to induce post antibiotic sub-MIC effect at 0.2 times MIC after 1 hr by plate counting method; conditions: Enterococcus faecalis, 10, 1 h
# Enterococcus faecalis [15] = experiment: Antimicrobial activity against vancomycin-resistant Enterococcus faecalis 266 by microdilution method
# Staphylococcus aureus [16] = experiment: Antimicrobial activity against methicillin-resistant, vancomycin-resistant Staphylococcus aureus 770 assessed as post antibiotic effect at 10 times MIC after 1 hr by plate counting method; conditions: Staphylococcus aureus, 770, 1 h
# Enterococcus faecalis [17] = experiment: Antimicrobial activity against vancomycin-resistant Enterococcus faecalis 609 assessed as time required to induce post antibiotic sub-MIC effect at 0.2 times MIC after 1 hr by plate counting method; conditions: Enterococcus faecalis, 609, 1 h
# Streptococcus pneumoniae [18] = experiment: Antimicrobial activity against Penicillin-susceptible Streptococcus pneumoniae s502 assessed as post antibiotic effect at 10 times MIC after 1 hr by plate counting method; conditions: s502, 1 h
# Enterococcus faecalis [19] = experiment: Antimicrobial activity against vancomycin-resistant Enterococcus faecalis 266 assessed as time required to induce sub-MIC effect at 0.3 times MIC after 1 hr by plate counting method; conditions: Enterococcus faecalis, 266, 1 h
# Staphylococcus aureus [20] = experiment: Antimicrobial activity against methicillin-resistant, vancomycin-resistant Staphylococcus aureus 770 assessed as time required to induce sub-MIC effect at 0.3 times MIC after 1 hr by plate counting method; conditions: Staphylococcus aureus, 770, 1 h
# Staphylococcus aureus [21] = experiment: Antimicrobial activity against methicillin-susceptible, vancomycin-susceptible Staphylococcus aureus ATCC 29213 by microdilution method
# Streptococcus pneumoniae [22] = experiment: Antimicrobial activity against Streptococcus pneumoniae ATCC 10813 infected in neutropenic ICR mouse assessed as post antibiotic effect at 1.56 to 100 mg/kg, sc administered 14 hrs post infection; conditions: dose mg/kg 1.56-100; route subcutaneous
# Staphylococcus aureus [23] = experiment: Antimicrobial activity against methicillin-resistant, vancomycin-hetroresistant Staphylococcus aureus 618 assessed as post antibiotic effect at 10 times MIC after 1 hr by plate counting method; conditions: Staphylococcus aureus, 618, 1 h
# Streptococcus pneumoniae [24] = experiment: Antimicrobial activity against Penicillin-susceptible Streptococcus pneumoniae ATCC 49617 assessed as time required to induce sub-MIC effect at 0.4 times MIC after 1 hr by plate counting method; conditions: ATCC 49617, 1 h
# Enterococcus faecalis [25] = experiment: Antimicrobial activity against vancomycin-resistant Enterococcus faecalis 609 by microdilution method
# Staphylococcus aureus [26] = experiment: Antimicrobial activity against methicillin-resistant, vancomycin-resistant Staphylococcus aureus 770 assessed as time required to induce post antibiotic sub-MIC effect at 0.2 times MIC after 1 hr by plate counting method; conditions: Staphylococcus aureus, 770, 1 h
# Staphylococcus aureus [27] = experiment: Antimicrobial activity against methicillin-susceptible, vancomycin-susceptible Staphylococcus aureus sox1 assessed as post antibiotic effect at 10 times MIC after 1 hr by plate counting method; conditions: sox1, 1 h
# Staphylococcus aureus [28] = experiment: Antimicrobial activity against methicillin-resistant, vancomycin-resistant Staphylococcus aureus 770 assessed as time required to induce post antibiotic sub-MIC effect at 0.4 times MIC after 1 hr by plate counting method; conditions: Staphylococcus aureus, 770, 1 h
# Streptococcus pneumoniae [29] = experiment: Antimicrobial activity against Penicillin-intermediate Streptococcus pneumoniae s1234 assessed as time required to induce sub-MIC effect at 0.2 times MIC after 1 hr by plate counting method
# Enterococcus faecalis [30] = experiment: Antimicrobial activity against vancomycin-sensitive Enterococcus faecalis ATCC 29212 assessed as time required to induce post antibiotic sub-MIC effect at 0.3 times MIC after 1 hr by plate counting method; conditions: ATCC 29212, 1 h
# Streptococcus pneumoniae [31] = experiment: Antimicrobial activity against Penicillin-intermediate Streptococcus pneumoniae s1234 assessed as post antibiotic effect at 10 times MIC after 1 hr by plate counting method; conditions: s1234, 1 h
# Enterococcus faecalis [32] = experiment: Antimicrobial activity against vancomycin-resistant Enterococcus faecalis 266 assessed as time required to induce sub-MIC effect at 0.2 times MIC after 1 hr by plate counting method; conditions: Enterococcus faecalis, 266, 1 h
# Staphylococcus aureus [33] = experiment: Antimicrobial activity against methicillin-resistant, vancomycin-susceptible Staphylococcus aureus vs1 by microdilution method
# Enterococcus faecalis [34] = experiment: Antimicrobial activity against vancomycin-sensitive Enterococcus faecalis 20 assessed as time required to induce sub-MIC effect at 0.4 times MIC after 1 hr by plate counting method; conditions: Enterococcus faecalis, 20, 1 h
# Streptococcus pneumoniae [35] = experiment: Antimicrobial activity against Penicillin-intermediate Streptococcus pneumoniae s1234 assessed as time required to induce post antibiotic sub-MIC effect at 0.3 times MIC after 1 hr by plate counting method; conditions: s1234, 1 h
# Streptococcus pneumoniae [36] = experiment: Antimicrobial activity against Penicillin-, erythromycin-resistant Streptococcus pneumoniae 37 assessed as time required to induce post antibiotic sub-MIC effect at 0.3 times MIC after 1 hr by plate counting method; conditions: Streptococcus pneumoniae, 37, 1 h
structure (smiles),measurement,setting,value
CCO/N=C(\C(=O)N[C@@H]1C(=O)N2C(C(=O)[O-])=C(Sc3nc(-c4cc[n+](C)cc4)cs3)CS[C@H]12)c1nsc(NP(=O)(O)O)n1 [CEFTAROLINE FOSAMIL],PAE,Streptococcus pneumoniae [1],0 h
same,time,Enterococcus faecalis [2],2.2 h
same,PAE,Streptococcus pneumoniae [3],1.6 h
same,PAE,Streptococcus pneumoniae [4],0.2 h
same,PAE,Enterococcus faecalis [5],1.5 h
same,MIC,Streptococcus pneumoniae [6],0.016 µg/mL
same,PAE,Staphylococcus aureus [7],0.8 h
same,time,Staphylococcus aureus [8],2.9 h
same,time,Staphylococcus aureus [9],4.7 h
same,PAE,Enterococcus faecalis [10],0.5 h
same,time,Staphylococcus aureus [11],1.3 h
same,PAE,Enterococcus faecalis [12],0.5 h
same,MIC,Staphylococcus aureus [13],2 µg/mL
same,PAE,Enterococcus faecalis [14],3.2 h
same,MIC,Enterococcus faecalis [15],2 µg/mL
same,PAE,Staphylococcus aureus [16],1.3 h
same,time,Enterococcus faecalis [17],3 h
same,PAE,Streptococcus pneumoniae [18],1.8 h
same,time,Enterococcus faecalis [19],1.8 h
same,time,Staphylococcus aureus [20],0.5 h
same,MIC,Staphylococcus aureus [21],0.25 µg/mL
same,PAE,Streptococcus pneumoniae [22],1.5 h
same,PAE,Staphylococcus aureus [23],0.7 h
same,PAE,Streptococcus pneumoniae [24],0.8 h
same,MIC,Enterococcus faecalis [25],1 µg/mL
same,time,Staphylococcus aureus [26],1.5 h
same,PAE,Staphylococcus aureus [27],0.8 h
same,time,Staphylococcus aureus [28],7.1 h
same,PAE,Streptococcus pneumoniae [29],0 h
same,PAE,Enterococcus faecalis [30],> 10.6 h
same,PAE,Streptococcus pneumoniae [31],0.7 h
same,time,Enterococcus faecalis [32],1.4 h
same,MIC,Staphylococcus aureus [33],0.5 µg/mL
same,PAE,Enterococcus faecalis [34],3.6 h
same,PAE,Streptococcus pneumoniae [35],1.8 h
same,time,Streptococcus pneumoniae [36],3 h
